{"source": "patent US7939499B2", "about": "“Method for increasing cardiac mass and performance” (Trustees of Dartmouth College, priority 2005, dated 2011)", "format_in_all_cases": "in vivo, mouse", "key": {"[1]": {"test_system": "transgenic mice with myocardial-specific expression of PR39", "test": "Endothelial cell mass (I131-labeled anti-PECAM antibody perfusion) and direct capillary counting in PR39 transgenic mice", "text": "(§1) To monitor PR39 expression, β-galactosidase was expressed bicistronically.\nThree weeks after induction of PR39 expression in 6-8 week-old mice, a significant increase in the endothelial cell mass was observed as determined by in vivo perfusion with an I^131-labeled anti-PECAM antibody and direct capillary counting (Table 1).\n(§2) Full-length porcine PR39 cDNA was inserted into a tetracycline-responsive vector system and a tetracycline transactivator was placed under transcriptional control of an α-myosin heavy chain promoter. The resulting tetracycline-responsive system was microinjected into fertilized mouse eggs. PCR analysis of genomic DNA from mouse tail tissue confirmed integration into the mouse genome. Independent transgenic lines were established and used for the analysis disclosed herein."}, "[2]": {"test_system": "endothelial cells and cardiac myocytes", "test": "Immunocytochemical staining with anti-Ki67 antibody (proliferation)", "conditions": "after induction of PR39 expression", "text": "(§3) To gain further insight into the nature of the hypertrophy process, expression of myocyte hypertrophy markers was examined. […] These findings are consistent with an increase in endothelial cell mass, […] an increase in cardiac size, largely driven by myocyte hypertrophy accompanied by an induction of a typical hypertrophic response."}, "[3]": {"test_system": "ANF, βMHC and skeletal α-actin gene expression", "test": "Expression of myocyte hypertrophy markers", "conditions": "6 weeks after PR39 expression induction (not at 3 weeks)", "text": "as §3"}, "[4]": {"test_system": "transgenic mice with myocardial-specific expression of PR39", "test": "Echocardiographic and pressure-volume loop analysis of myocardial function", "protocol": "as §1\nTo determine whether this endothelial-driven myocardial hypertrophy affected cardiac performance, echocardiographic and pressure-volume loop analysis of myocardial function was performed following induction of PR39 expression. In agreement with morphologic observations, heart expressing PR39 had somewhat larger left ventricular end-diastolic volume and end-diastolic diameter (Table 2). There was a significant enhancement of systolic performance as indicated by decreased left ventricle end-systolic volume and increases in the […], +dP/dT, maximal-generated left ventricle pressure and cardiac output (Table 2). Unexpectedly, there was also a significant improvement in diastolic function as indicated by reduced tau and −dP/dt (Table 2).\nTo evaluate the robustness of the observed increase in myocardial size and functional improvement, PR39 expression was shut off six weeks after its induction and the mice were re-examined three weeks later. Both the increase in the myocardial mass and improvements in the systolic and diastolic function were maintained at that time.\nas §2"}, "[5]": {"test_system": "transgenic mice with myocardial-specific expression of PR39", "test": "Heart size, myocardial mass and myocyte cross-sectional area after induction of PR39 expression", "text": "as §1\nSix weeks after induction of PR39 expression, a large increase in the heart size was observed that was attributable to increased ventricular wall thickness and a mild increase in the left ventricle chamber size.\nas §2"}, "[6]": {"conditions": "six weeks after induction of PR39 expression"}, "[7]": {"conditions": "six weeks following induction of PR39 expression"}, "[8]": {"conditions": "six weeks induction of PR39 expression followed by 3 weeks repression"}}, "note": "Marks after values point to notes of the source that are not given here. Where no end group is shown, it is not given here."}
{"substance": "PR39: Angiogenic proline/arginine-rich peptide; full-length porcine PR39 cDNA expressed myocardial-specifically in tetracycline-regulated transgenic mice (mature peptide SEQ ID NO:3) (RRRPRPPYLPRPRPPPFFPPRLPPRIPPGFPPRFPPRFP-NH2; listed as Sus scrofa)", "values": [{"measurement": "Capillary density per gram of myocardial tissue", "setting": "[1]; [6]", "result": "returned to values seen in control mice"}, {"measurement": "Capillary Density (Capillary/50 μm^2)", "setting": "[1]; three weeks after induction of PR39 expression in 6-8 week-old mice", "result": "5.90 ± 0.12", "unit": "Capillary/50 μm^2"}, {"measurement": "Anti-PECAM (μg antibody/gram tissue)", "setting": "[1]; three weeks after induction of PR39 expression in 6-8 week-old mice, endothelial cell mass", "result": "0.52 ± 0.07", "unit": "μg antibody/gram tissue"}, {"measurement": "Proliferation of endothelial cells between myocyte bundles (anti-Ki67)", "setting": "[2]", "result": "increased proliferation"}, {"measurement": "Proliferation of cardiac myocytes (anti-Ki67)", "setting": "[2]; multiple sections", "result": "no proliferation"}, {"measurement": "ANF, βMHC and skeletal α-actin gene expression", "setting": "[3]", "result": "marked increase"}, {"measurement": "Increase in myocardial mass and improvements in systolic and diastolic function after shut-off", "setting": "[4]; PR39 expression shut off six weeks after induction, re-examined three weeks later", "result": "maintained"}, {"measurement": "Left Ventricle Mass", "setting": "[4]; [7]", "result": "74 ± 1.1^a mg"}, {"measurement": "Left Ventricle internal dimension systolic", "setting": "[4]; [7]", "result": "2.28 ± 0.20^c mm"}, {"measurement": "Cardiac output", "setting": "[4]; [8]", "result": "9046 ± 239^a μL/minute"}, {"measurement": "Ejection fraction", "setting": "[4]; [8]", "result": "85.06 ± 0.76^a %"}, {"measurement": "End diastolic pressure", "setting": "[4]; [8]", "result": "7.17 ± 0.17^a mmHg"}, {"measurement": "End diastolic volume", "setting": "[4]; [8]", "result": "18.78 ± 0.31^a μL"}, {"measurement": "End systolic pressure", "setting": "[4]; [8]", "result": "70.49 ± 0.99^b mmHg"}, {"measurement": "End systolic volume", "setting": "[4]; [8]", "result": "3.26 ± 0.15^a μL"}, {"measurement": "Maximum dP/dt", "setting": "[4]; [8]", "result": "8809 ± 167^a mmHg/second"}, {"measurement": "Maximum pressure", "setting": "[4]; [8]", "result": "92.26 ± 0.54^a mmHg"}, {"measurement": "Maximum volume", "setting": "[4]; [8]", "result": "20.15 ± 0.29^a μL"}, {"measurement": "Minimum dP/dt", "setting": "[4]; [8]", "result": "−7503 ± 123^a mmHg/second"}, {"measurement": "Minimum pressure", "setting": "[4]; [8]", "result": "3.79 ± 0.15^a mmHg"}, {"measurement": "Minimum volume", "setting": "[4]; [8]", "result": "2.86 ± 0.13^a μL"}, {"measurement": "Stroke volume", "setting": "[4]; [8]", "result": "17.29 ± 0.32^a μL"}, {"measurement": "Tau-w", "setting": "[4]; [8]", "result": "6.0 ± 0.1^a msec"}, {"measurement": "Increase in myocardial mass", "setting": "[5]; cardiac-specific overexpression of PR39", "result": 50, "unit": "%"}, {"measurement": "Heart size", "setting": "[5]; [6]", "result": "0.15±0.01", "unit": "gram"}, {"measurement": "Myocyte area increase (cross-sectional area of enzymatically dispersed cardiac myocytes)", "setting": "[5]; [6]", "result": 30, "unit": "%"}, {"measurement": "Heart enlargement", "setting": "[5]; six weeks after induction of PR39 expression, vs non-transgenic mice", "result": 35, "unit": "%"}, {"measurement": "Heart size after repression of PR39 expression", "setting": "[5]; six weeks induction, then 3 weeks repression of PR39 expression", "result": "remained unchanged"}]}
